Experimental data published in patent US20230203098A1, “HUMAN TRANSFERRIN RECEPTOR BINDING PEPTIDE” (priority 2020, published 2023).
pKd: −log10 of the molar value. Where two headings read alike, the source gives them in different places. Blank lines part the entries; values can stand above or below the compound they belong to. Where a SMILES comes first, the peptide text is derived from it. Bridges are numbered along the chain shown (N, C = ends). [ ]: non-standard residue; d: D form. Trp(1-CH2COOH) = N[C@@H](Cc1cn(CC(=O)O)c2ccccc12)C(=O)O; PEG12 = NCCOCCOCCOCCOCCOCCOCCOCCOCCOCCOCCOCCOCCC(=O)O; NMePhe(3-Cl) = CN[C@@H](Cc1cccc(Cl)c1)C(=O)O; NMeW = CN[C@@H](Cc1c[nH]c2ccccc12)C(=O)O; NMeY = CN[C@@H](Cc1ccc(O)cc1)C(=O)O; NMeF = CN[C@@H](Cc1ccccc1)C(=O)O; Aad = N[C@@H](CCCC(=O)O)C(=O)O; hLys = NCCCCC[C@H](N)C(=O)O

Biological target: transferrin receptor (hTfR) (Homo sapiens, UniProt P02786)
Sequence (P02786 whole entry): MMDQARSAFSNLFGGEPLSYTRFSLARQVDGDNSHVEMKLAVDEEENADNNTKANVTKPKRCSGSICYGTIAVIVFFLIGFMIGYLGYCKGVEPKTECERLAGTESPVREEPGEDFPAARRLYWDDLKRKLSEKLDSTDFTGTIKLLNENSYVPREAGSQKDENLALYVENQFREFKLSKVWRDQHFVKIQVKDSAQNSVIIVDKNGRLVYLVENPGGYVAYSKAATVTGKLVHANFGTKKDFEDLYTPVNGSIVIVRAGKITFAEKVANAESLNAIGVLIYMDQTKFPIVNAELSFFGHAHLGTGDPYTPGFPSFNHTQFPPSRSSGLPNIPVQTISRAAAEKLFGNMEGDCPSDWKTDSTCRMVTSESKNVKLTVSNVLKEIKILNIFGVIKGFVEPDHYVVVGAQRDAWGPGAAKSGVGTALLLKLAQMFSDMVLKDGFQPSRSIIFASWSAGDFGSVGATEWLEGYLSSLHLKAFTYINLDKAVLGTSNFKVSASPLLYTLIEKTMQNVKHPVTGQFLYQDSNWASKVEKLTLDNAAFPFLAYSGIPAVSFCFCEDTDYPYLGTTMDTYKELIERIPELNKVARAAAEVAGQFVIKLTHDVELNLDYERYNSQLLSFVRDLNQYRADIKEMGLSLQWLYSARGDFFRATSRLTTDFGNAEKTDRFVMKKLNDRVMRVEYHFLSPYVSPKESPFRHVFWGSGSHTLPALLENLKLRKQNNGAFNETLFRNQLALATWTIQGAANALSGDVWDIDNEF
Assay: Intermolecular interaction evaluation test between transferrin receptor (hTfR) and peptide by surface plasmon resonance (SPR)
Format: binding
In short: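 Receptor was Ni-captured and EDC/NHS-fixed on an NTA chip; running buffer HEPES pH 8.0 with NaCl, Tween 20, BSA and 1.0% DMSO.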

[1] = surface plasmon resonance, peptide vs hTfR, read-out: KD value, hTfR binding by SPR (class symbol)
[2] = surface plasmon resonance, peptide vs hTfR, read-out: KD value for hTfR by SPR (class symbol)
[3] = SPR, hTfR, class symbols A-D, read-out: KD (column without head, continuation of the table series)
[4] = surface plasmon resonance, hTfR, read-out: KD value for hTfR by SPR (class symbol)

SMILES: CC[C@H](C)[C@@H]1NC(=O)[C@H](Cc2ccc(O)cc2)NC(=O)[C@H](Cc2ccc(O)cc2)NC(=O)[C@H](CC(N)=O)NC(=O)[C@H](Cc2c[nH]c3ccccc23)NC(=O)[C@H](C(C)C)NC(=O)[C@H](Cc2ccccc2)N(C)C(=O)[C@H](C(C)C)NC(=O)[C@H](C)NC(=O)CSC[C@@H](C(=O)N(C)CC(=O)N(C)CC(=O)N(C)CC(N)=O)NC(=O)[C@H](Cc2ccc(O)cc2)N(C)C(=O)[C@H](Cc2ccc(O)cc2)NC(=O)[C@H](CCCNC(=N)N)NC(=O)[C@H](CCCNC(=N)N)NC(=O)[C@H]([C@@H](C)CC)NC1=O [compound 298]
pKd [1]: 7.00 to 9.00

SMILES: CC[C@H](C)[C@@H]1NC(=O)[C@H](Cc2ccc(O)cc2)NC(=O)[C@H](Cc2ccc(O)cc2)NC(=O)[C@H](CC(N)=O)NC(=O)[C@H](Cc2c[nH]c3ccccc23)NC(=O)[C@H](C(C)C)NC(=O)[C@H](Cc2ccccc2)N(C)C(=O)[C@H](C(C)C)NC(=O)[C@H](C)NC(=O)CSC[C@@H](C(=O)NCCOCCOCCOCCOCCC(=O)N[C@@H](CNC(=O)c2ccc(-c3c4ccc(=O)cc-4oc4cc(O)ccc34)c(C(=O)O)c2)C(N)=O)NC(=O)[C@H](Cc2ccc(O)cc2)N(C)C(=O)[C@H](Cc2ccc(O)cc2)NC(=O)[C@H](CCCNC(=N)N)NC(=O)[C@H](CCCNC(=N)N)NC(=O)[C@H]([C@@H](C)CC)NC1=O [compound 162]
pKd (SPR, linker and payload (FITC, VivoTag) conjugates, read-out: KD): 7.00 to 9.00

SMILES: CC[C@H](C)[C@@H]1NC(=O)[C@H](Cc2ccc(O)cc2)NC(=O)[C@H](Cc2ccc(O)cc2)NC(=O)[C@H](CC(N)=O)NC(=O)[C@H](Cc2c[nH]c3ccccc23)NC(=O)[C@H](C(C)C)NC(=O)[C@H](Cc2ccccc2)N(C)C(=O)[C@H](C(C)C)NC(=O)[C@H](C)NC(=O)CSC[C@@H](C(=O)NCC(=O)NCC(=O)N[C@@H](CO)C(=O)NCC(=O)N[C@@H](CO)C(=O)N[C@@H](CO)C(=O)NCC(=O)NCC(=O)N[C@@H](CO)C(=O)NCC(=O)N[C@@H](CO)C(=O)N[C@@H](CO)C(=O)N[C@@H](CCCCNC(=O)C2CCC(CN3C(=O)C=CC3=O)CC2)C(N)=O)NC(=O)[C@H](Cc2ccc(O)cc2)N(C)C(=O)[C@H](Cc2ccc(O)cc2)NC(=O)[C@H](CCCNC(=N)N)NC(=O)[C@H](CCCNC(=N)N)NC(=O)[C@H]([C@@H](C)CC)NC1=O (some centres unmarked) [compound 196]
pKd (hTfR binding by SPR, hTfR No. 894 variant peptides, linker-added peptides and payload conjugates (Table 2), read-out: KD value obtained from the SPR measurement): 7.00 to 9.00

SMILES: CC[C@H](C)[C@@H]1NC(=O)[C@H](Cc2ccc(O)cc2)NC(=O)[C@H](Cc2ccc(O)cc2)NC(=O)[C@H](CC(N)=O)NC(=O)[C@H](Cc2c[nH]c3ccccc23)NC(=O)[C@H](C(C)C)NC(=O)[C@H](Cc2ccccc2)NC(=O)[C@H](C(C)C)NC(=O)[C@H](C)NC(=O)CSC[C@@H](C(N)=O)NC(=O)[C@H](Cc2ccc(O)cc2)N(C)C(=O)[C@H](Cc2ccc(O)cc2)NC(=O)[C@H](C)NC(=O)[C@H](CCC(=O)O)NC(=O)[C@H]([C@@H](C)CC)NC1=O [compound 252]
pKd (binding to hTfR by SPR, Table 2 peptides, read-out: KD value (SPR) class): 6.00 to 7.00

SMILES: CC[C@H](C)[C@@H]1NC(=O)[C@H](Cc2ccc(OC)cc2)NC(=O)[C@H](Cc2ccc(O)cc2)NC(=O)[C@H](CC(N)=O)NC(=O)[C@H](Cc2c[nH]c3ccccc23)N(C)C(=O)[C@H](C(C)C)NC(=O)[C@H](Cc2cccc(Cl)c2)N(C)C(=O)[C@H](C(C)C)NC(=O)[C@H](C)NC(=O)CSC[C@@H](C(=O)NCCOCCOCCOCCOCCC(N)=O)NC(=O)[C@H](Cc2ccc(O)cc2)N(C)C(=O)[C@H](Cc2ccccc2)NC(=O)[C@@H](CCCNC(=N)N)NC(=O)C(C)(C)NC(=O)[C@H]([C@@H](C)CC)NC1=O [compound 354]
pKd [4]: > 9.00

SMILES: CC[C@H](C)[C@@H]1NC(=O)[C@H](Cc2ccc(OC)cc2)NC(=O)[C@H](Cc2ccc(O)cc2)NC(=O)[C@H](CC(N)=O)NC(=O)[C@H](Cc2c[nH]c3ccccc23)N(C)C(=O)[C@H](C(C)C)NC(=O)[C@H](Cc2cccc(Cl)c2)N(C)C(=O)[C@H](CC(=O)O)NC(=O)[C@H](C)NC(=O)CSC[C@@H](C(=O)NCC(=O)NCC(=O)NCC(=O)NCC(=O)N[C@@H](CO)C(=O)N[C@@H](CO)C(=O)N[C@@H](CS)C(N)=O)NC(=O)[C@H](Cc2ccc(O)cc2)N(C)C(=O)[C@H](Cc2ccccc2)NC(=O)[C@@H](CCCNC(=N)N)NC(=O)[C@H](CCCNC(=N)N)NC(=O)[C@H]([C@@H](C)CC)NC1=O [compound 236] ({CH2CO}-AD[NMePhe(3-Cl)]V[NMeW]NYY(Me)IIR[dR]F[NMeY]CGGGGSSC-NH2; thioether N-15)
pKd: 6.00 to 7.00

SMILES: CC[C@H](C)[C@@H]1NC(=O)[C@H](Cc2ccc(O)cc2)NC(=O)[C@H](Cc2ccc(O)cc2)NC(=O)[C@H](CC(N)=O)NC(=O)[C@H](Cc2c[nH]c3ccccc23)NC(=O)[C@H](C(C)C)NC(=O)[C@H](Cc2ccccc2)N(C)C(=O)[C@H](Cc2ccccc2)NC(=O)[C@H](C)NC(=O)CSC[C@@H](C(=O)NCCOCCOCCOCCOCCOCCOCCOCCOCCOCCOCCOCCOCCC(N)=O)NC(=O)[C@H](Cc2ccc(O)cc2)N(C)C(=O)[C@H](Cc2ccc(O)cc2)NC(=O)[C@H](CCCNC(=N)N)NC(=O)[C@H](CCCNC(=N)N)NC(=O)[C@H]([C@@H](C)CC)NC1=O [compound 133] ({CH2CO}-AF[NMeF]VWNYYIIRRY[NMeY]C[PEG12]-NH2; thioether N-15)
pKd (SPR, hTfR No. 894 variants with PEG12c linker (Table 2), read-out: KD): 7.00 to 9.00

SMILES: CC[C@H](C)[C@@H]1NC(=O)[C@H](Cc2ccc(OC)cc2)NC(=O)[C@H](Cc2ccc(O)cc2)NC(=O)[C@H](CC(N)=O)NC(=O)[C@H](Cc2cn(CC(=O)O)c3ccccc23)NC(=O)[C@H](C(C)C)NC(=O)[C@H](Cc2cccc(Cl)c2)N(C)C(=O)[C@H](C(C)C)NC(=O)[C@H](C)NC(=O)CSC[C@@H](C(N)=O)NC(=O)[C@H](Cc2ccc(O)cc2)N(C)C(=O)[C@H](Cc2ccccc2)NC(=O)[C@@H](CCCNC(=N)N)NC(=O)C(C)(C)NC(=O)[C@H]([C@@H](C)CC)NC1=O [compound 303]
pKd [1]: 7.00 to 9.00

SMILES: CC[C@H](C)[C@@H]1NC(=O)[C@H](Cc2ccc(OC)cc2)NC(=O)[C@H](Cc2ccc(O)cc2)NC(=O)[C@H](CC(N)=O)NC(=O)[C@H](Cc2c[nH]c3ccccc23)N(C)C(=O)[C@H](C(C)C)NC(=O)[C@H](Cc2cccc(Cl)c2)N(C)C(=O)[C@H](C(C)C)NC(=O)[C@H](C)NC(=O)CSC[C@@H](C(N)=O)NC(=O)[C@H](Cc2ccc(O)cc2)N(C)C(=O)[C@H](Cc2ccccc2)NC(=O)[C@@H](CCCNC(=N)N)NC(=O)[C@H](CCCCN)NC(=O)[C@H]([C@@H](C)CC)NC1=O [compound 373]
pKd [4]: 7.00 to 9.00

The next lines start with the values.

pKd [2]: 7.00 to 9.00
SMILES: CC[C@H](C)[C@@H]1NC(=O)[C@H](Cc2ccc(O)cc2)NC(=O)[C@H](Cc2ccc(O)cc2)NC(=O)[C@H](CC(N)=O)NC(=O)[C@H](Cc2cn(CC(=O)O)c3ccccc23)NC(=O)[C@H](C(C)C)NC(=O)[C@H](Cc2cccc(Cl)c2)N(C)C(=O)[C@@H]2CCCC(=O)NCCCCC[C@H](NC(=O)[C@H]([C@@H](C)CC)NC1=O)C(=O)N[C@H](CCCNC(=N)N)C(=O)N[C@@H](Cc1ccccc1)C(=O)N(C)[C@@H](Cc1ccc(O)cc1)C(=O)N[C@H](C(N)=O)CSCC(=O)N[C@@H](C)C(=O)N2 [compound 419] ({CH2CO}-A[Aad][NMePhe(3-Cl)]V[Trp(1-CH2COOH)]NYYII[hLys][dR]F[NMeY]C-NH2; lactam 2-11; thioether N-15)

pKd [3]: 6.00 to 7.00
SMILES: CC[C@H](C)[C@@H]1NC(=O)[C@H](Cc2ccc(OCCN)cc2)NC(=O)[C@H](Cc2ccc(O)cc2)NC(=O)[C@H](CC(N)=O)NC(=O)[C@H](Cc2c[nH]c3ccccc23)NC(=O)[C@H](C(C)C)NC(=O)[C@H](Cc2ccccc2)N(C)C(=O)[C@H](C(C)C)NC(=O)[C@H](C)NC(=O)CSC[C@@H](C(N)=O)NC(=O)[C@H](Cc2ccc(O)cc2)N(C)C(=O)[C@H](Cc2ccccc2)NC(=O)[C@H](CCCNC(=N)N)NC(=O)[C@H](CCCNC(=N)N)NC(=O)[C@H]([C@@H](C)CC)NC1=O [compound 522]

pKd [2]: > 9.00
SMILES: CC[C@H](C)[C@@H]1NC(=O)[C@H](Cc2ccc(O)cc2)NC(=O)[C@H](Cc2ccc(O)cc2)NC(=O)[C@H](CC(N)=O)NC(=O)[C@H](Cc2c[nH]c3ccccc23)NC(=O)[C@H](C(C)C)NC(=O)[C@H](Cc2ccccc2)N(C)C(=O)[C@H](C(C)C)NC(=O)[C@H](C)NC(=O)CSC[C@@H](C(=O)NCCOCCOCCOCCOCCC(=O)N[C@H](CCCCNC(=O)c2ccc(-c3c4ccc(=O)cc-4oc4cc(O)ccc34)c(C(=O)O)c2)C(N)=O)NC(=O)[C@H](Cc2ccc(O)cc2)N(C)C(=O)[C@H](Cc2ccc(O)cc2)NC(=O)[C@H](CCCNC(=N)N)NC(=O)[C@H](CCCNC(=N)N)NC(=O)[C@H]([C@@H](C)CC)NC1=O [compound 446]

pKd [4]: 7.00 to 9.00
SMILES: CC[C@H](C)[C@@H]1NC(=O)[C@H](Cc2ccc(OC)cc2)NC(=O)[C@H](Cc2ccc(O)cc2)NC(=O)[C@H](CC(N)=O)NC(=O)[C@H](Cc2c[nH]c3ccccc23)N(C)C(=O)[C@H](C(C)C)NC(=O)[C@H](Cc2cccc(Cl)c2)N(C)C(=O)[C@H](C(C)C)NC(=O)[C@H](C)NC(=O)CSC[C@@H](C(N)=O)NC(=O)[C@H](Cc2ccc(O)cc2)N(C)C(=O)[C@H](Cc2ccc(Cl)cc2)NC(=O)[C@@H](CCCNC(=N)N)NC(=O)[C@H](CCCNC(=N)N)NC(=O)[C@H]([C@@H](C)CC)NC1=O [compound 392]

pKd [3]: > 9.00
SMILES: CC[C@H](C)[C@@H]1NC(=O)[C@H](Cc2ccc(OC)cc2)NC(=O)[C@H](Cc2ccc(O)cc2)NC(=O)[C@H](CC(N)=O)NC(=O)[C@H](Cc2c[nH]c3ccccc23)NC(=O)[C@H](C(C)C)NC(=O)[C@H](Cc2cccc(Cl)c2)N(C)C(=O)[C@H](C(C)C)NC(=O)[C@H](C)NC(=O)CSC[C@@H](C(=O)NCCOCCOCCOCCOCCC(N)=O)NC(=O)[C@H](Cc2ccc(O)cc2)N(C)C(=O)[C@H](Cc2ccccc2)NC(=O)[C@H](CCCNC(=N)N)NC(=O)[C@H](CCCCN)NC(=O)[C@H]([C@@H](C)CC)NC1=O [compound 503]
